The values that follow come from patent US6828294B2, “High retention sanitizer systems” (FMC Corporation, priority 2001, dated 2004).

Series [1] can be described thus: Stability of PAA in compositions and in presence of chelators (PAA test strips). To be noted: for PAA present immediately after preparation of the solution / time after which no PAA was detectable: chelator plus 0.170 g of 5% PAA in 100 g DI water, PAA test strips. On the procedure:
A sanitizer composition containing 0.25% SLS, 0.05% LA, 0.125% magnesium sulfate, and 85 ppm PAA was prepared in the 300 ppm total hardness water described in Example 8. This solution was applied to a stainless steel cabinet (34.5 in.×72 in.) in the meat pilot plant with a FOAM-IT® 5 unit using the driest foam setting.
This Example illustrates the effect of chelating agent on sanitizer compositions. The amount of chelator added is intended to chelate a concentration of ions corresponding to 300 ppm hard water, which corresponds to 3 millimolar. Because water will often have a hardness of less than 300 ppm, leaving an excess of chelator, it is important to evaluate the stability of PAA with respect to the chelator. The excess chelator could cause increases in pH, which would decrease the amount of PAA present according to the reaction (Preparation, Properties, Reactions and Uses of Organic Peracids and their Salts, FMC Corporation, Inorganic Chemicals Division, New York, N.Y., 1964, p. 34):
Therefore, in anticipation of the worst case where soft water is used to prepare the solution from which the foam is generated, the stability of PAA in the presence of at least 3 millimolar of chelator was evaluated.
0.125 g of Na4EDTA and 0.170 g of 5% PAA were added to 100 g of DI water.
0.161 g of Na3EDTA and 0.170 g of 5% PAA were added to 100 g of DI water.
0.233 g of Na2EDTA and 0.170 g of 5% PAA were added to 100 g of DI water.

The next series is described as follows: pH of solutions. The following applies: chelator solutions in DI water in the absence of PAA, pH test paper. The format is physicochemical.
The nature of series [2]: Turbidity of lauryl sulfate solutions in hard water (Example 8). The format is physicochemical. On the procedure: When a 0.25% MLS solution was prepared in water containing 333 ppm of calcium chloride, the solution became turbid after about 2 min.
Hard water contains both magnesium and calcium ions. For a 300 ppm total hardness (expressed as calcium carbonate), there is about 200 ppm hardness as calcium and 100 ppm hardness as magnesium (AOAC Official Methods of Analysis, 1995, Chapter 6, p. 10). […] When 0.25% solution of MLS was prepared in 300 ppm total hardness water containing calcium and magnesium ions in this ratio, the solution became turbid after about 5 minutes.

Where [3] appears, read: 0.25% solution in 300 ppm total hardness water containing calcium and magnesium ions.
[4] abbreviates: 0.25% solution in water containing 333 ppm of calcium chloride.

`O=P([O-])(O)CN(CCN(CCN(CP(=O)(O)O)CP(=O)(O)O)CP(=O)(O)O)CP(=O)(O)O.[Na+]` [DEQUEST 2066]: the “stability of PAA in the presence of the chelator” value (“stability of PAA” below) in series [1] is listed as “not found any chelator in salt form in which PAA is stable”.

Consider `CC(O)(P(=O)(O)O)P(=O)(O)O` [DEQUEST® 2010, 1-hydroxyethylidene-1,1-diphosphonic acid], for which the “stability of PAA” value in series [1] was “stable”.

For `O=C([O-])CN(CCN(CC(=O)[O-])CC(=O)O)CC(=O)O.[Na+].[Na+]` [Na2EDTA], in the series “pH of solutions”, the pH was found to be 4. Moreover, in series [1], the “PAA present immediately after preparation of the solution” value (shortened to “PAA present immediately”) is recorded as “at least 50 ppm” and the “time after which no PAA was detectable” value is about 10 min.

`O=C([O-])CN(CCN(CC(=O)[O-])CC(=O)O)CC(=O)[O-].[Na+].[Na+].[Na+]` [Na3EDTA] displayed a pH in the series “pH of solutions” of 7.5. Moreover, in series [1], the “PAA present immediately” value is recorded as “at least 50 ppm” and the “time after which no PAA was detectable” value is about 5 min.

On to `O=C([O-])CN(CCN(CC(=O)[O-])CC(=O)[O-])CC(=O)[O-].[Na+].[Na+].[Na+].[Na+]` [Na4EDTA], for which the pH in “pH of solutions” was 10. Further, the “PAA present immediately” value in series [1] is “no PAA present”.

For the molecule `CCCCCCCCCCCCOS(=O)(=O)[O-].[Na+]` [SLS, Sodium lauryl sulfate], the results for the “time until solution became turbid” value in series [2] (setting [3]) and in series [2] (setting [4]) were “immediately became turbid” and “instantly became turbid”, respectively.

As to `O=C([O-])CN(CCN(CC(=O)[O-])CC(=O)[O-])CCN(CC(=O)[O-])CC(=O)[O-].[Na+].[Na+].[Na+].[Na+].[Na+]` [pentasodium salt of diethylenetriaminepentaacetic acid], in series [1], the “stability of PAA” value is “not found any chelator in salt form in which PAA is stable”.

Regarding Magnesium lauryl sulfate [MLS], the “time until solution became turbid” value was “about 5 minutes” in series [2] (setting [3]) and “about 2 min” in series [2] (setting [4]).

Regarding “sodium salts of diethylene triamine pentaacetic acid”, the “stability of PAA” value in series [1] is given as “rapidly decomposes”.
